From ChEMBL document CHEMBL1201862, “PubChem BioAssay data set” (2004)
Calls of active or inactive are those of the source.

Legend:
[1] = target: Potassium voltage-gated channel subfamily KQT member 2 (Rattus norvegicus, UniProt O88943, W236L); test: potentiation of rat KCNQ2 current – cell-based, automated electrophysiology, mechanism study for KCNQ2 potentiator project, dose response (AID 2603); format: functional
[2] = target: Potassium voltage-gated channel subfamily KQT member 2 (Rattus norvegicus, UniProt O88943); test: potentiation of rat KCNQ2 current – cell-based, retigabine-insensitive compounds, dose response (AID 2654); format: functional
Sequence of Potassium voltage-gated channel subfamily KQT member 2 (Rattus norvegicus, UniProt O88943) (O88943 whole entry, the tested form may be a part): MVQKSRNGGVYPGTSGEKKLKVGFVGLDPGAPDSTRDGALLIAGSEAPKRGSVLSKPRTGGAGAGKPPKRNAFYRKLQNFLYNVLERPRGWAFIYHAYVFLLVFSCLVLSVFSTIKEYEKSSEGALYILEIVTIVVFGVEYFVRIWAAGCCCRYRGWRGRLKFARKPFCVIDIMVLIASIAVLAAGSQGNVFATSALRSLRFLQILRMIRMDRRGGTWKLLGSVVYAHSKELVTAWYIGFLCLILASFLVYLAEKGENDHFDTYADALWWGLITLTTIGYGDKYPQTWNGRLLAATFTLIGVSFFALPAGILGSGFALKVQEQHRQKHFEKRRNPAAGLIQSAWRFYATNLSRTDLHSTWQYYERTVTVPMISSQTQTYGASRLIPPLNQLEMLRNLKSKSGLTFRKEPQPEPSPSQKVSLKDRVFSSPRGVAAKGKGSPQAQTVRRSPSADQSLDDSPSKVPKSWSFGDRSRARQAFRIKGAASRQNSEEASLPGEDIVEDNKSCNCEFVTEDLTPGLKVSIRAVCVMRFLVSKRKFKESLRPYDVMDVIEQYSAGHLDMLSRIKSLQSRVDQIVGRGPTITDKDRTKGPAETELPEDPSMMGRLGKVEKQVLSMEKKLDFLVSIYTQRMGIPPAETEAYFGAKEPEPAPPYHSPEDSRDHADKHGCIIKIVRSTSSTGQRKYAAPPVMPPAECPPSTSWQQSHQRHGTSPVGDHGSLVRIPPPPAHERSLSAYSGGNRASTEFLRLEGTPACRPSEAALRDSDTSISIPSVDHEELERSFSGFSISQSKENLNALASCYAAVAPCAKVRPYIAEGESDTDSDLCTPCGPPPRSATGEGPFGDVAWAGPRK

[3] = target: NACHT, LRR and PYD domains-containing protein 3 (Homo sapiens, UniProt Q96P20); test: NALP3 inhibitors in yeast, dose response, luminescent (AID 488799); format: functional
Sequence of NACHT, LRR and PYD domains-containing protein 3 (Q96P20 whole entry, the tested form may be a part): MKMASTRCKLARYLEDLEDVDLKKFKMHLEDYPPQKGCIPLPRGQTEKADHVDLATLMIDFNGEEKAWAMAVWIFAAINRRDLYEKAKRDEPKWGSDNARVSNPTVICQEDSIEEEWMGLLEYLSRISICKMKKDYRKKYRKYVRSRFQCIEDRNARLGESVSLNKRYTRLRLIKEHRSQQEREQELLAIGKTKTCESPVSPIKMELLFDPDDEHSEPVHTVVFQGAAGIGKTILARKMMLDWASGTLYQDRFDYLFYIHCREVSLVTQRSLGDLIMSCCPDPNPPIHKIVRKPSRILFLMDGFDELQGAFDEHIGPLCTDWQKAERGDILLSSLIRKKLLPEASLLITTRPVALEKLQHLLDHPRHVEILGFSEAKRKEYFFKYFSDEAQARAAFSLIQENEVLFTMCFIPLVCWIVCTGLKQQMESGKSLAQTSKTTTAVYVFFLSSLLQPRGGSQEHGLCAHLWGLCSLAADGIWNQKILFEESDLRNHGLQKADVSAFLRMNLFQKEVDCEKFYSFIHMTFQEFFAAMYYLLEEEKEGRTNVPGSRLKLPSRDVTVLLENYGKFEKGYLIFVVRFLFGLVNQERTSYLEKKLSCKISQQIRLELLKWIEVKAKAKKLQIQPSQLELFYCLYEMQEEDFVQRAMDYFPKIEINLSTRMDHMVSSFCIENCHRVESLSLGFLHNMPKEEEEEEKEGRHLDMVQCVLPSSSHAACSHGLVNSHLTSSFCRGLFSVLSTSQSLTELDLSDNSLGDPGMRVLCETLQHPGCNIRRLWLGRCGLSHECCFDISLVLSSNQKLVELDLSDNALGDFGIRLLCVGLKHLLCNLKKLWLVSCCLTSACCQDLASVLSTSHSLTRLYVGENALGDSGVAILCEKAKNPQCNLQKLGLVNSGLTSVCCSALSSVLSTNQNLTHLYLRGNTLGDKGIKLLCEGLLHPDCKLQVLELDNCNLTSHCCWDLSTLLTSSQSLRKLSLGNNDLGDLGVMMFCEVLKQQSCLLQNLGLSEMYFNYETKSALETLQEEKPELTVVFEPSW

[4] = blockers of SFLLRN-triggered platelet ATP secretion – cell-based, human platelets, luminescence, dry powder, dose response (AID 493100); format: functional
[5] = PAR1 agonist-induced platelet activation inhibition – cell-based, fluorescence, flow cytometry, human platelets, dose response (AID 2511); format: functional
[6] = Luminescence Cell-Based Dose Confirmation HTS to Identify Inhibitors of Platelet Dense Granule Release. [Related pubchem assays: 1663 (Primary HTS), 1678 (Summary of Project)]; format: functional
[7] = target: T1, Luciferin 4-monooxygenase (Photinus pyralis, UniProt P08659); test: inhibition of purified Photinus pyralis luciferase – biochemical, luminescence, dose response (AID 1891)
T1 sequence (P08659 whole entry): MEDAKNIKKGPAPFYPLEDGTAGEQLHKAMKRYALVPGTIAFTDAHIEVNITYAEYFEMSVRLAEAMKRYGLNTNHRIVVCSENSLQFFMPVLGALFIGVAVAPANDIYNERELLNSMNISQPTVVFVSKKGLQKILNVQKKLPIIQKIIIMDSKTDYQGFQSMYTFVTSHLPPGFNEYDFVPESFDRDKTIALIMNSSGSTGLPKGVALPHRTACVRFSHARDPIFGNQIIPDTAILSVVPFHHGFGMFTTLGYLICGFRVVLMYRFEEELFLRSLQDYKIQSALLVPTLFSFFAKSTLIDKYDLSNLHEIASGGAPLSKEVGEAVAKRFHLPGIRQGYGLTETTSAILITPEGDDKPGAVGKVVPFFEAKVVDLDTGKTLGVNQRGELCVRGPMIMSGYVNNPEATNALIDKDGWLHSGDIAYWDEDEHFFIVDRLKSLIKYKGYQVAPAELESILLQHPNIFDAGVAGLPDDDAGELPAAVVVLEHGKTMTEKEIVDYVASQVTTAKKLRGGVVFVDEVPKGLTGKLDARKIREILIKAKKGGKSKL

[8] = target: T1, Luciferin 4-monooxygenase; test: In vitro luciferase assay using purified luciferase. [Related pubchem assays: 1299, 1270, 1295, 1375, 1287, 1281, 1293, 1291, 1289, 1280, 465, 1364, 1282, 1372, 1365, 1370, 1367, 1366, 1266, 1373, 1292, 1290, 1302, 1371, 1283, 1271, 1294, 1374, 1368, 1369 ]
[9] = test system: HEK293; test: PMA/Ionomycin-induced IL-8 production in HEK293- NF-kB-Luc stable cells. [Related pubchem assays: 1299, 1295, 1375, 1287, 1281, 1293, 1291, 1289, 1280, 465, 1364, 1282, 1372, 1365, 1367, 1366, 1266, 1269, 1373, 1292, 1290, 1302, 1371, 1283, 1271, 1294, 1374, 1368, 1369 ]; format: functional, cell-based; settings: Homo sapiens
[10] = test system: HEK293; test: PMA/Ionomycin induced NF-kB luciferase assay in 293- NF-kB-Luc stable cells. [Related pubchem assays: 1299, 1270, 1295, 1375, 1287, 1281, 1293, 1291, 1289, 1280, 465, 1364, 1282, 1372, 1365, 1370, 1367, 1366, 1269, 1373, 1292, 1290, 1302, 1371, 1283, 1271, 1294, 1374, 1368, 1369 ]; format: functional, cell-based; settings: Homo sapiens
[11] = target: Paired box protein Pax-8 (Homo sapiens, UniProt Q06710); test: PAX8 transcriptional activity inhibition in RMG-I – RMG-I cells, luciferase, cherry-pick, dose response (AID 687027); format: functional, cell-based;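 note: luciferase reporter driven by Pax8 target thyroperoxidase promoter measured by SteadyGlo luminescence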
Sequence of Paired box protein Pax-8 (Q06710 whole entry, the tested form may be a part): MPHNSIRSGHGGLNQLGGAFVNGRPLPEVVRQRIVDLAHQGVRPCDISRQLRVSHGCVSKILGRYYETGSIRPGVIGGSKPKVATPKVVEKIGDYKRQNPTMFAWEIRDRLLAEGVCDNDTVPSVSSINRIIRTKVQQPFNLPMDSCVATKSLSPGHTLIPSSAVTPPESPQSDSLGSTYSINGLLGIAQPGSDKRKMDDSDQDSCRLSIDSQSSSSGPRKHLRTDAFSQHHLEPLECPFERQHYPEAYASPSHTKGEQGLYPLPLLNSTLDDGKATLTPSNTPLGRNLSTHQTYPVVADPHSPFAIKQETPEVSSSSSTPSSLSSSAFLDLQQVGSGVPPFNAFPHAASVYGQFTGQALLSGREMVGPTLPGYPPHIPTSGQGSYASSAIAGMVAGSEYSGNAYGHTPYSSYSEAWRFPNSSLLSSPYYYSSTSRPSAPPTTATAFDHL

[12] = blockers of HIV-1 envelope-mediated cell-cell fusion – cherry-pick, dose response (AID 652057); format: functional, cell-based
[13] = test system: HEK293; test: TNF Induced NF-kB Luciferase in 293-NF-kB-Luc Stable Cells. [Related pubchem assays: 1266, 1299, 1269, 1373, 1292, 1290, 1302, 1371, 1283, 1270, 1295, 1271, 1375, 1294, 1374, 1281, 1293, 1291, 1289, 1280, 465, 1368, 1364, 1282, 1372, 1365, 1369, 1370, 1367, 1366 ]; format: functional, cell-based; settings: Homo sapiens
[14] = off-target signal loss in HeLa-CEM21 co-culture – HeLa F-luc CTL cells, cherry-picked, counter-screen for HIV-1 Env fusion inhibitor project, dose response (AID 652040); format: functional, cell-based;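 note: potency for signal decrease marking cytotoxic or nonspecific inhibition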
[15] = blockers of HIV-1 ZM109 envelope-driven cell-cell fusion – HeLa effector, CEM target cells, luciferase, cherry-pick, dose response (AID 652058); format: functional, cell-based;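 note: luciferase signal from HIV-1 Env mediated cell-cell fusion of effector and target cells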
[16] = test system: HEK293; test: Cytotoxicity assay in HEK293 cells. [Related pubchem assays (depositor defined):AID1266, AID1269, AID1270, AID1271, AID1280, AID1281, AID1282, AID1283, AID1287, AID1289, AID1290, AID1291, AID1292, AID1293, AID1294, AID1295, AID1299, AID1302, AID1364, AID1365, AID1366, AID1367, AID1369, AID1370, AID1371, AID1372, AID1373, AID1374, AID1375, AID1384 …; format: functional, cell-based; settings: Homo sapiens
[17] = HEK-293T cell viability reduction – luminescence, B-cell screen hits, cytotoxicity control for BCR NF-kB inhibitor project, dose response (AID 489021); format: functional, cell-based;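 note: HEK-293T cells carrying an NF-kB luciferase reporter; cells exposed to compound for about 14 hours before viability readout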
[18] = HIV-1 AD8 envelope cell-cell fusion blockers – cherry-pick, dose response (AID 652062); format: functional, cell-based;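 note: luciferase signal from cell-cell fusion driven by HIV-1 clade B AD8 Env; potency is for inhibitors of fusion seen as a drop in luminescence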
[19] = target: Heat shock protein HSP 90-alpha (Homo sapiens, UniProt P07900); test: Luminescence-based dose response biochemical high throughput screening assay for inhibitors of the Heat Shock Protein 90 (HSP90). [Related pubchem assays: 1831 (Summary AID.), 1846 (Confirmation screen.), 1789 (Primary screen.)]
[20] = target: X-box-binding protein 1 (Homo sapiens, UniProt P17861); format: functional, Cricetulus griseus;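 note: confirmatory dose-response counter-screen serving a CHOP assay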
Sequence of X-box-binding protein 1 (P17861 whole entry): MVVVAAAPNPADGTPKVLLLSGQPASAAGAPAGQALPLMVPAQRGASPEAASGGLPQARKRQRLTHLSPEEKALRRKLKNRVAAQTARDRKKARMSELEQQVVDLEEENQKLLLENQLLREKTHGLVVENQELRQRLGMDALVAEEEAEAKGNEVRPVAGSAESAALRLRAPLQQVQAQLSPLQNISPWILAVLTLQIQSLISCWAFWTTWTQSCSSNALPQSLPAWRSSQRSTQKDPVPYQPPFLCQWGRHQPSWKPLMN

[21] = target: T2, Eukaryotic translation initiation factor 2-alpha kinase 3 (Homo sapiens, UniProt Q9NZJ5); test: Counterscreen assay for PERK inhibitors: Dose response cell-based high throughput screening assay to measure inhibition of PERK at 6 hours. [Related pubchem assays: 1522, 1416 ]; format: functional
T2 sequence (Q9NZJ5 whole entry): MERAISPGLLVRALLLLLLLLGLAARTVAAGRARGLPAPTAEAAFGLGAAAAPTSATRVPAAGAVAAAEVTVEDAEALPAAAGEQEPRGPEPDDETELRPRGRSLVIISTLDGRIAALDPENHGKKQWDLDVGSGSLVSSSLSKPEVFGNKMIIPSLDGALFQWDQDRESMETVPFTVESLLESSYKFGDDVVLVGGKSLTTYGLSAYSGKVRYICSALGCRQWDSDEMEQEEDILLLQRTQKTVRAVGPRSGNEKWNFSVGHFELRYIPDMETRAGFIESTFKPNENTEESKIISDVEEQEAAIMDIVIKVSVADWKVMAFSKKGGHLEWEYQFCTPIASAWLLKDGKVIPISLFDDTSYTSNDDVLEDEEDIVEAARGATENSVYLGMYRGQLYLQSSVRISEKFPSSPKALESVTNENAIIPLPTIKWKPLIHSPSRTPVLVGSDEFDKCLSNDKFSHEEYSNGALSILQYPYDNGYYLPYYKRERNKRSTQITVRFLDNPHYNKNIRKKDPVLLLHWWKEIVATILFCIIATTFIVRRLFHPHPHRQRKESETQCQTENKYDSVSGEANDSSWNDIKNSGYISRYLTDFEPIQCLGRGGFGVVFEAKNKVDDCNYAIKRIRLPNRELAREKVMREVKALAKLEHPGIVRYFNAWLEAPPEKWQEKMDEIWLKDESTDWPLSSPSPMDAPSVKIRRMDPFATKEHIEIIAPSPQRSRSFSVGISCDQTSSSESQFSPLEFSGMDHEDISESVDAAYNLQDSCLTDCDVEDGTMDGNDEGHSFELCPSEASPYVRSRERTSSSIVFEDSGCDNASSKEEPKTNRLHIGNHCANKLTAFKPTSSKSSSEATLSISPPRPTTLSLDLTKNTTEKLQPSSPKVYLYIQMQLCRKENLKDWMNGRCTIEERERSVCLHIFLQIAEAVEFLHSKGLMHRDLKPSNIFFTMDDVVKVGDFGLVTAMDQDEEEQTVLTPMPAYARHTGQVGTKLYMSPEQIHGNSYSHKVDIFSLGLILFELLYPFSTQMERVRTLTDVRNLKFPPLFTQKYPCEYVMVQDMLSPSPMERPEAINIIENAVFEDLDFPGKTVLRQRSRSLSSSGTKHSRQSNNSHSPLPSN

[22] = target: T2, Eukaryotic translation initiation factor 2-alpha kinase 3; test: Dose response cell-based high-throughput screening assay to measure PERK inhibition. [Related pubchem assays: 1416 ]; format: functional

Sequence of Potassium voltage-gated channel subfamily KQT member 2 (Rattus norvegicus, UniProt O88943, W236L) (O88943 whole entry W236L): as the sequence (O88943 whole entry, the tested form may be a part) above, with W236L counted along it

Q: With S=C(Nc1ccc(Oc2ccccc2)cc1)Nc1cccnc1 as the compound, how does the EC50 [1] read?
A: 7.25 µM (active)

Q: What about the EC50 [2] of the same compound?
A: 4.45 µM (active)

Q: Which IC50 [3] does the source give for c1ccc(OCc2nnnn2-c2ccccc2)cc1 here?
A: 6 µM (active)

Q: With Cc1ccc(-c2c(C#N)c(N)n(-c3ccc(C)cc3)c(=O)c2C#N)cc1 as the compound, how does the AC50 [4] read?
A: 9.08 µM (active)

Q: What about the EC50 [5] of the same compound?
A: < 3 µM (active)

Q: And the EC50 [6]?
A: 2.3 µM (active)

Q: And the EC50 [7]?
A: > 112 µM (not active)

Q: Which EC50 [8] does the source give for O=C(CN1C(=O)c2ccccc2S1(=O)=O)N1CCc2ccccc21 here?
A: > 8 µM (not active)

Q: And the EC50 [9]?
A: > 8 µM (not active)

Q: What about the EC50 [10] of the same compound?
A: 0.53 µM (active)

Q: What about the AC50 [11] of the same compound?
A: 4.88 µM (active)

Q: What about the AC50 [12] of the same compound?
A: 2.89 µM (active)

Q: And the EC50 [13]?
A: > 8 µM (not active)

Q: And the AC50 [14]?
A: 3.84 µM (active)

Q: And the AC50 [15]?
A: 8.62 µM (active)

Q: What about the EC50 [16] of the same compound?
A: > 8 µM (inactive)

Q: What about the IC50 [17] of the same compound?
A: > 80 µM (inactive)

Q: And the AC50 [18]?
A: 3.89 µM (active)

Q: And the IC50 [19]?
A: 35.3 µM (not active)

Q: With O=C1CC(c2ccccc2Cl)CC(=O)C1=CNc1ccccc1 (configuration not stated) as the compound, how does the “Absolute IC50 (XBP1)” value [20] read?
A: 10 µM

Q: For O=C(O)CSc1ncnc2scc(-c3ccc(Br)cc3)c12, which EC50 [21] is on record?
A: > 55.7 µM (not active)

Q: What about the EC50 [22] of the same compound?
A: > 55.7 µM (not active)
